Experimental data from US8017809B2, “Bisboron compound” (Japan Science and Technology Agency, priority 2005, dated 2011).
pIC50: −log10 of the molar value. Read-outs that look alike come from different tables or passages of the source. Values belong to the compound of their own block, whether it stands above or below them.

System: capacitative calcium entry (CCE) in IP3 receptor-deficient strain of cell line DT40
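Note: intracellular Ca2+ read as 340/380 nm excitation ratio at 510 nm emission, stores emptied by thapsigargin without external Ca2+, then 2 mM CaCl2 added, inhibition of the ensuing Ca2+ rise.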

Procedure: (Assay of Capacitative Calcium Entry Inhibition)
Its 510 nm fluorescence obtained at 340 nm and 380 nm is measured and the fluorescence ratio F340/380 is measured to determine the intracellular calcium ion concentration. Next, thapsigargin (an endoplasmic reticulum calcium ion pump inhibitor) is allowed to act without calcium ion in an extracellular fluid to deplete an intracellular calcium store. Calcium chloride at a final concentration of 2 mM is added to the extracellular fluid. The IC50 value is calculated by estimating the effect of each compound on the degree of increase in the intracellular calcium concentration at the time of the addition.

Compound: CNCCOB(c1ccc(COc2ccc(B(OCCNC)c3ccc(C(F)(F)F)cc3)cc2)cc1)c1ccc(C(F)(F)F)cc1 [Example 84, (4′-Trifluoromethylphenyl-N-methylaminoethoxyboryl)-4-phenyl (4′-trifluoromethylphenyl-N-methylaminoethoxyboryl)-4-benzyl ether]
- inhibition (1 µM): 50%
- inhibition (3 µM): 100%

Compound: COc1ccc(B(OCCN)c2ccc(COCc3ccc(B(OCCN)c4ccc(OC)cc4)cc3)cc2)cc1 [Example 94, Bis(4,4′-(p-methoxyphenyl-aminoethoxyboryl)benzyl) ether]
- inhibition (1 µM): 0%
- inhibition (3 µM): 100%

Compound: OB(c1ccccc1)c1ccc(Oc2ccc(B(O)c3ccccc3)cc2)cc1 [Example 1, Bis(4,4′-(phenylhydroxyboryl)phenyl) ether]
- inhibition (3 µM): 50%

Compound: Cc1ccc(B(OCCN)c2ccc(COCc3ccc(B(OCCN)c4ccc(C)c(Cl)c4)cc3)cc2)cc1Cl [Example 102, Bis(4,4′-(3-chloro-4-methylphenyl-aminoethoxyboryl)benzyl) ether]
- inhibition (1 µM): 30%
- inhibition (3 µM): 100%

Compound: CNCCOB(c1ccccc1)c1ccc(Oc2ccc(B(OCCNC)c3ccccc3)cc2)cc1 [Example 68, Bis(4,4′-(phenyl-N-methylaminoethoxyboryl)phenyl) ether]
- inhibition (0.3 µM): 20%
- inhibition (1 µM): 80%

Compound: NCCOB(c1ccccc1)c1cccc(COCc2cccc(B(OCCN)c3ccccc3)c2)c1 [Example 5, Bis(3,3′-(phenylaminoethoxyboryl)benzyl) ether]
- inhibition (0.03 µM): 30%
- inhibition (0.1 µM): 95%
- inhibition (0.3 µM): 100%

Compound: NCCOB(c1ccccc1)c1cccc(COCc2ccccc2B(OCCN)c2ccccc2)c1 [Example 15, (2-(Phenylaminoethoxyboryl)benzyl) (3-(phenylaminoethoxyboryl)benzyl) ether]
- inhibition (0.3 µM): 100%
- inhibition (1 µM): 100%
- inhibition (3 µM): 100%

Compound: c1ccc(B(OCc2ccccn2)c2ccc(COc3ccc(B(OCc4ccccn4)c4ccccc4)cc3)cc2)cc1 [Example 111, (4-Phenyl-2-pyridylmethoxyborylphenyl) (4′-phenyl-2-pyridylmethoxyborylbenzyl) ether]
- inhibition (1 µM): 20%
- inhibition (3 µM): 100%

Compound: CN(C)CCOB(c1ccc(COCc2ccc(B(OCCN(C)C)c3ccc(C(F)(F)F)cc3)cc2)cc1)c1ccc(C(F)(F)F)cc1 [Example 106, Bis(4,4′-(p-trifluoromethylphenyl-N,N-dimethylaminoethoxyboryl)benzyl) ether]
- inhibition (1 µM): 30%
- inhibition (3 µM): 100%

Compound: c1ccc(B(OCC2CCCN2)c2ccc(COCc3ccc(B(OCC4CCCN4)c4ccccc4)cc3)cc2)cc1 (stereo not shown) [Example 134, Bis(4,4′-(phenyl-2-pyrrolidinemethoxyboryl)benzyl) ether]
- inhibition (1 µM): 20%
- inhibition (3 µM): 100%

Compound: CNCCOB(c1ccccc1)c1cccc(COCc2cccc(B(OCCNC)c3ccccc3)c2)c1 [Example 151, Bis(3,3′-(phenyl-N-methylethoxyboryl)benzyl) ether]
- inhibition (1 µM): 60%
- inhibition (3 µM): 100%

Compound: c1ccc(B(OCc2ccccn2)c2ccc(COCc3ccc(B(OCc4ccccn4)c4ccccc4)cc3)cc2)cc1 [Example 88, Bis(4,4′-(phenyl-2-pyridylmethoxyboryl)benzyl) ether]
- inhibition (1 µM): 95%
- inhibition (3 µM): 100%

Compound: Cc1ccc(B(OCCN)c2ccc(-c3ccc(B(OCCN)c4ccc(C)cc4)cc3)cc2)cc1 [Example 45, 4,4′-(4-Methylphenylaminoethoxyboryl)diphenyl]
- inhibition (1 µM): 20%
- inhibition (3 µM): 100%

Compound: Bis(4,4′-(phenyl-N-methylpiperidine-methoxyboryl)benzyl) ether [Example 139]
- inhibition (1 µM): 40%
- inhibition (3 µM): 100%

Compound: CNCCOB(c1ccc(COCc2ccc(B(OCCNC)c3ccc(C)c(Cl)c3)cc2)cc1)c1ccc(C)c(Cl)c1 [Example 103, Bis(4,4′-(3-chloro-4-methylphenyl-N-methylaminoethoxyboryl)benzyl) ether]
- inhibition (1 µM): 30%
- inhibition (3 µM): 80%

Compound: OB(c1ccccc1)c1ccc(COc2ccc(B(O)c3ccccc3)cc2)cc1 [Example 51, (4-Phenylhydroxyborylphenyl) (4′-phenylhydroxyborylbenzyl) ether]
- inhibition (1 µM): 20%
- inhibition (3 µM): 100%

Compound: CCCCNCCOB(c1ccccc1)c1ccc(COCc2ccc(B(OCCNCCCC)c3ccccc3)cc2)cc1 [Example 136, Bis(4,4′-(phenyl-butylaminoethoxyboryl)benzyl) ether]
- inhibition (1 µM): 30%
- inhibition (3 µM): 100%

Compound: NCCOB(c1ccc(COc2ccc(B(OCCN)c3ccc(C(F)(F)F)cc3)cc2)cc1)c1ccc(C(F)(F)F)cc1 [Example 55]
- inhibition (0.3 µM): 0%
- inhibition (1 µM): 20%
- inhibition (3 µM): 100%

Compound: Bis(4,4′-(phenyl-ornithineboryl)phenyl) ether [Example 117]
- inhibition (1 µM): 80%
- inhibition (3 µM): 100%

Compound: CN(C)CCOB(c1ccccc1)c1cccc(COCc2cccc(B(OCCN(C)C)c3ccccc3)c2)c1 [Example 85, Bis(3,3′-(phenyl-N,N-dimethylaminoethoxyboryl)benzyl) ether]
- inhibition (1 µM): 10%
- inhibition (3 µM): 90%

Compound: OB(c1ccc(COc2ccc(B(O)c3ccc(C(F)(F)F)cc3)cc2)cc1)c1ccc(C(F)(F)F)cc1 [Example 54, (4-Trifluoromethylphenylhydroxyborylphenyl) (4′-trifluoromethylphenylhydroxyborylbenzyl) ether]
- inhibition (1 µM): 60%
- inhibition (3 µM): 100%

Compound: c1ccc(B(OCc2ccccn2)c2ccc(Oc3ccc(B(OCc4ccccn4)c4ccccc4)cc3)cc2)cc1 [Example 160, Bis(4,4′-(phenyl-2-pyridylmethoxyboryl)phenyl) ether]
- inhibition (3 µM): 0%
- inhibition (10 µM): 100%

Compound: CN(C)CCOB(c1ccccc1)c1ccc(COc2ccc(B(OCCN(C)C)c3ccccc3)cc2)cc1 [Example 110, (4-Phenyl-N,N-dimethylaminoethoxyborylphenyl) 4′-(N,N-dimethylaminoethoxyborylbenzyl) ether]
- inhibition (1 µM): 20%
- inhibition (3 µM): 100%

Compound: Cc1ccc(B(OCC2CCCCN2)c2ccc(COCc3ccc(B(OCC4CCCCN4)c4ccc(C)c(Cl)c4)cc3)cc2)cc1Cl (stereo not shown) [Example 105, Bis(4,4′-(3-chloro-4-methylphenyl-2-piperidylmethyloxyboryl)benzyl) ether]
- inhibition (1 µM): 30%
- inhibition (3 µM): 100%

Compound: CC(C)(C)c1cc(B(OCCN)c2ccccc2)c2c(c1)C(C)(C)c1cc(C(C)(C)C)cc(B(OCCN)c3ccccc3)c1O2 [Example 60, 4,5-Di(phenylaminoethoxyboryl)-2,7-di-t-butyl-9,9-dimethylxanthrene]
- inhibition (1 µM): 20%
- inhibition (3 µM): 100%

Compound: NCCOB(c1ccc(COCCOc2ccc(B(OCCN)c3cccs3)cc2)cc1)c1cccs1 [Example 53, (4-(2-Thiopheneaminoethoxyboryl)phenoxyethyl) (4′-(2-thiopheneaminoethoxyboryl)benzyl) ether]
- inhibition (1 µM): 10%

Compound: NCCOB(c1ccc(COCc2ccc(B(OCCN)c3ccc(C(F)(F)F)cc3)cc2)cc1)c1ccc(C(F)(F)F)cc1 [Example 108, Bis(4,4′-(p-trifluoromethylphenyl-aminoethoxyboryl)benzyl) ether]
- inhibition (1 µM): 20%
- inhibition (3 µM): 100%

Compound: CNCCOB(c1ccc(COCc2ccc(B(OCCNC)c3ccc(OC)cc3)cc2)cc1)c1ccc(OC)cc1 [Example 95, Bis(4,4′-(p-methoxyphenyl-N-methylaminoethoxyboryl)benzyl) ether]
- inhibition (1 µM): 80%
- inhibition (3 µM): 80%

Compound: OB(c1ccccc1)c1cccc(COCc2cccc(B(O)c3ccccc3)c2)c1 [Example 4]
- inhibition (0.1 µM): 70%
- inhibition (0.3 µM): 95%
- inhibition (1 µM): 100%

Compound: NC(COB(c1ccccc1)c1ccc(COCc2ccc(B(OCC(N)c3ccccc3)c3ccccc3)cc2)cc1)c1ccccc1 (stereo not shown) [Example 164, Bis(4,4′-(phenyl-2-phenyl-2-amino-ethoxyboryl)benzyl) ether]
- inhibition (3 µM): 100%
- inhibition (10 µM): 100%

Compound: Cc1ccc(B(O)c2ccc(COCc3ccc(B(O)c4ccc(C)c(Cl)c4)cc3)cc2)cc1Cl [Example 90, Bis(4,4′-(3-chloro-4-methylphenyl-hydroxyboryl)benzyl) ether]
- inhibition (1 µM): 20%
- inhibition (3 µM): 100%

Compound: CC(CCNCCN)OB(c1ccccc1)c1cccc(COCc2cccc(B(OC(C)CCNCCN)c3ccccc3)c2)c1 (stereo not shown) [Example 152, Bis(3,3′-(phenyl-N-aminoethyl-1-methyl-3-aminopropoxyboryl)benzyl) ether]
- inhibition (1 µM): 40%
- inhibition (3 µM): 80%

Compound: NCCOB(c1ccccc1)c1ccc(COc2ccc(B(OCCN)c3ccccc3)cc2)cc1 [Example 52, (4-Phenylaminoethoxyborylphenyl) (4′-phenylaminoethoxyborylbenzyl) ether]
- inhibition (3 µM): 100%

Compound: CCCCNCCB(c1ccccc1)c1cccc(COCc2cccc(B(CCNCCCC)c3ccccc3)c2)c1 [Example 155, Bis(3,3′-(phenyl-N-butylaminoethylboryl)benzyl) ether]
- inhibition (1 µM): 95%
- inhibition (3 µM): 100%

Compound: CNCCOB(c1ccccc1)c1ccc(COc2ccc(B(OCCNC)c3ccccc3)cc2)cc1 [Example 109, (4-Phenyl-N-methylaminoethoxyborylphenyl) 4′-(N-methylaminoethoxyborylbenzyl) ether]
- inhibition (1 µM): 80%
- inhibition (3 µM): 100%

Compound: Cc1ccc(B(OCCN(C)C)c2ccc(COCc3ccc(B(OCCN(C)C)c4ccc(C)c(Cl)c4)cc3)cc2)cc1Cl [Example 104, Bis(4,4′-(3-chloro-4-methylphenyl-N,N-dimethylaminoethoxyboryl)benzyl) ether]
- inhibition (1 µM): 20%
- inhibition (3 µM): 100%

- pIC50: 5.30
Compound: NCCOB(c1ccccc1)c1ccccc1 [(2-aminoethoxy)diphenylborane, reference compound]

Compound: NCC(OB(c1ccccc1)c1cccc(COCc2cccc(B(OC(CN)c3ccccc3)c3ccccc3)c2)c1)c1ccccc1 (stereo not shown) [Example 150, Bis(3,3′-(phenyl-2-amino-1-phenylethoxyboryl)benzyl) ether]
- inhibition (1 µM): 50%
- inhibition (3 µM): 100%

Compound: OB(c1ccccc1)c1ccc(COCc2ccccc2B(O)c2ccccc2)cc1 [Example 12, (2-(Phenylhydroxyboryl)benzyl) (4-(phenylhydroxyboryl)benzyl) ether]
- inhibition (0.3 µM): 10%
- inhibition (1 µM): 80%
- inhibition (3 µM): 100%
